# Columns and labels:
# [1] = target: T1, hMAO-B (Homo sapiens, UniProt P27338); experiment: In vitro hMAO-B inhibition, spectrophotometric Kynuramine deamination assay; type: biochemical
# T1 construct: purchased Sigma-Aldrich; host or cells: insect cells (BTI-TN-5B1-4), recombinant baculovirus
# T1 sequence (P27338 1-520): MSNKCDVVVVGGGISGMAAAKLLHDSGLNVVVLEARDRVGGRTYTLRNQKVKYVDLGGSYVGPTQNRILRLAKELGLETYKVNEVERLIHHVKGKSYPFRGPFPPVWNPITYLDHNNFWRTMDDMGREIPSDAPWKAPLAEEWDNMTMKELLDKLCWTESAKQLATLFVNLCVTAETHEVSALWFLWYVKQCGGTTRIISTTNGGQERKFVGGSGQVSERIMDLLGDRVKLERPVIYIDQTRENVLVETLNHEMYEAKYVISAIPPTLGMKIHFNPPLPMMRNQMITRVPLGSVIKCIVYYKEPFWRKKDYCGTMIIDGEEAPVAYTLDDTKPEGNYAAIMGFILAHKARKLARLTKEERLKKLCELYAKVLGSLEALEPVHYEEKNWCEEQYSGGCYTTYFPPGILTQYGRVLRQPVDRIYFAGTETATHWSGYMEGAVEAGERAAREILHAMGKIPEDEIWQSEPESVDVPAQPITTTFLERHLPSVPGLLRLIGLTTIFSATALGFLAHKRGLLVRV
# Protocol: (§1) To this end, a spectrophotometric method based on the oxidative deamination of Kynuramine by recombinant hMAO-A or hMAO-B was used.
# (§2) The inhibitory activity of Bergamottin on hMAO-A and hMAO-B was studied using an experimental protocol described elsewhere. The hMAO inhibitory activity was assessed in microsomal MAO isoforms prepared from insect cells (BTI-TN-5B1-4) infected with recombinant baculovirus containing cDNA inserts for hMAO-A or hMAO-B, and by measuring the enzymatic conversion rates of Kynuramine into 4-hydroxyquinoline. […] All assays were performed in sodium phosphate buffer solution 50 mM pH 7.4.
# (§3) Then, the reaction was started with the addition of hMAO-A or hMAO-B. Initial velocities were determined spectrophotometrically in a microplate reader (BioTek Synergy HT from BioTek Instruments, Winooski, VT, USA) at 37 °C by measuring the formation of 4-hydroxyquinoline at 316 nm, over a period of at least 30 min (interval of 1 min). Data were analyzed using GraphPad PRISM version 6 for Windows (GraphPad Software®, San Diego, CA, USA). […] IC50 values were obtained from dose–response curves and were expressed as mean ± standard deviation. IC50 values were determined from at least three independent experiments, each performed in triplicate. […]
# [2] = target: T2, hMAO-A (Homo sapiens, UniProt P21397); experiment: In vitro hMAO-A inhibition, spectrophotometric Kynuramine deamination assay; type: biochemical
# T2 construct: purchased Sigma-Aldrich; host or cells: insect cells (BTI-TN-5B1-4), recombinant baculovirus
# T2 sequence (P21397 1-527): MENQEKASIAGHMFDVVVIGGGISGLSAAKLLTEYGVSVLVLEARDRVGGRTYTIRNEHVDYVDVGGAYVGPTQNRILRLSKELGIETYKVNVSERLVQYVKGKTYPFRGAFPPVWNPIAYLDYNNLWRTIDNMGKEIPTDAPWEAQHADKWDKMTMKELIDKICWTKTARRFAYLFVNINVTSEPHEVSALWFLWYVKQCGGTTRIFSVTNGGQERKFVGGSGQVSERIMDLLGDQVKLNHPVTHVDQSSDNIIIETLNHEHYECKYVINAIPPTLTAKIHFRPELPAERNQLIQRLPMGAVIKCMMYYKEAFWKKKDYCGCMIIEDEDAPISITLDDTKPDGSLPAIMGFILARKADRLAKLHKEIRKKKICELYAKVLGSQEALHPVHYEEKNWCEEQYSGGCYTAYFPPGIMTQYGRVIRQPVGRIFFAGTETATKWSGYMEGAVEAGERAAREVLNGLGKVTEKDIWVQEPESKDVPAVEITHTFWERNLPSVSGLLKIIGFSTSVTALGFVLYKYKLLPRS
# Protocol: as §1, §2, §3
smiles,measurement,setting,value
CC(C)=CCC/C(C)=C/COc1c2ccoc2cc2oc(=O)ccc12 [Bergamottin],IC50,"[1]; recombinant hMAO-B, Kynuramine substrate",0.291 µM
same,SI (selectivity index),[1]; selectivity for hMAO-B over hMAO-A from the IC50 values,31.8
same,IC50,[2],9.25 ± 0.91 µM

# From publication PMC9030833, “Molecular Modeling and Experimental Evaluation of Non-Chiral Components of Bergamot Essential Oil with Inhibitory Activity against Human Monoamine Oxidases” (Molecules, 2022)
